Results published in ChEMBL document CHEMBL4706699, “Novel (R)-6,6a,7,8,9,10-hexahydro-5H-pyrazino[1,2-a][1,n]naphthyridines as potent and selective agonists of the 5-HT receptor” (Bioorg Med Chem Lett, 2021).

How the values were obtained:
[1] = target: T1, 5-hydroxytryptamine receptor 2A (Homo sapiens, UniProt P28223); assay: Displacement of [3H]-DOI from recombinant human 5HT2AR transfected in human HEK293 cells incubated for 45 mins by radioligand binding assay; format: cell-based
[2] = target: T2, 5-hydroxytryptamine receptor 2C (Homo sapiens) (UniProt P28335); assay: Agonist activity at 5-HT2CR (unknown origin) transfected in human HEK293 cells at 10 uM by IP3 accumulation assay relative to control; format: functional, cell-based; conditions: filed as agonist
T2 sequence (whole entry): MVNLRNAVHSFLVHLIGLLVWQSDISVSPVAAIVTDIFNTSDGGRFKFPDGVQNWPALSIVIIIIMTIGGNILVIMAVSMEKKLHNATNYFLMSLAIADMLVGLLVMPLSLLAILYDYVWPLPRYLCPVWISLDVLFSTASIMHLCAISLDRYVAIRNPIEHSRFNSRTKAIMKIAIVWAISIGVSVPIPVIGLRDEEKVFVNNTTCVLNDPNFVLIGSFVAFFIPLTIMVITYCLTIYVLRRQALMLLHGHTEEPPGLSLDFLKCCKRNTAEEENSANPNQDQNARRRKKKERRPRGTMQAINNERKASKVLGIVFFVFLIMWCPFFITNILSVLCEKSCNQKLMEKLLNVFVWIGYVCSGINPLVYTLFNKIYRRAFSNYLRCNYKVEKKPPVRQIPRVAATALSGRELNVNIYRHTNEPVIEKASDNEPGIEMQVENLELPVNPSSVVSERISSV

[3] = target: T3, 5-hydroxytryptamine receptor 2C (Homo sapiens, UniProt P28335); assay: Displacement of [125I]-DOI from recombinant human 5HT2CR transfected in human HEK293 cells incubated for 45 mins by radioligand binding assay; format: cell-based
T3 sequence (P28335 whole entry): T2 sequence (whole entry)

[4] = Metabolic stability in human liver microsomes assessed as parent compound remaining at 1 uM incubated for 45 mins; format: ADME, Microsome; conditions: read-out: Stabilty
[5] = Metabolic stability in rat liver microsomes assessed as parent compound remaining at 1 uM incubated for 45 mins; format: ADME, Microsome; conditions: read-out: Stabilty
[6] = target: T3, 5-hydroxytryptamine receptor 2C; assay: Agonist activity at 5-HT2CR (unknown origin) transfected in human HEK293 cells by IP3 accumulation assay; format: functional, cell-based
5-HT2B receptor = 5-HT2B receptor (Homo sapiens, UniProt P41595); assay: Agonist activity at 5-HT2BR (unknown origin) transfected in human HEK293 cells at 10 uM by IP3 accumulation assay relative to control; format: cell-based; conditions: HEK293 cells transfected with 5-HT2BR
Chain of 5-HT2B receptor (P41595 whole entry): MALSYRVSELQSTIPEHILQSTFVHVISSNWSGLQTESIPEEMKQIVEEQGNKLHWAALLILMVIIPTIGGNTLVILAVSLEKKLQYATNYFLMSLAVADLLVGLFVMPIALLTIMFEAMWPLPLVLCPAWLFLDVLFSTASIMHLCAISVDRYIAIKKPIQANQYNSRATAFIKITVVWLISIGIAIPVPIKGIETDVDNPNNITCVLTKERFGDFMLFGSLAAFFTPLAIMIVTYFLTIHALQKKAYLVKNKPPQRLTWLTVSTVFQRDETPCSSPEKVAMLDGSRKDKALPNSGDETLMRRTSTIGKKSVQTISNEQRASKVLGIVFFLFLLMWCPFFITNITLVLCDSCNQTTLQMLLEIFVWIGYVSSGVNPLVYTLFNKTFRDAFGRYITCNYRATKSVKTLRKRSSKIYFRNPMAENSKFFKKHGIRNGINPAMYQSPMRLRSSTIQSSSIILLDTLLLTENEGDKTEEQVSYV

[7] = target: T4, 5-hydroxytryptamine receptor 2B (Homo sapiens, UniProt P41595); assay: Agonist activity at 5-HT2BR (unknown origin) transfected in human HEK293 cells by IP3 accumulation assay; format: cell-based
T4 sequence (P41595 whole entry): as above

5-HT2A receptor = 5-HT2A receptor (Homo sapiens, UniProt P28223); assay: Agonist activity at 5-HT2AR (unknown origin) transfected in human HEK293 cells at 10 uM by IP3 accumulation assay relative to control; format: cell-based; conditions: HEK293 cells transfected with 5-HT2AR
Chain of 5-HT2A receptor (P28223 whole entry): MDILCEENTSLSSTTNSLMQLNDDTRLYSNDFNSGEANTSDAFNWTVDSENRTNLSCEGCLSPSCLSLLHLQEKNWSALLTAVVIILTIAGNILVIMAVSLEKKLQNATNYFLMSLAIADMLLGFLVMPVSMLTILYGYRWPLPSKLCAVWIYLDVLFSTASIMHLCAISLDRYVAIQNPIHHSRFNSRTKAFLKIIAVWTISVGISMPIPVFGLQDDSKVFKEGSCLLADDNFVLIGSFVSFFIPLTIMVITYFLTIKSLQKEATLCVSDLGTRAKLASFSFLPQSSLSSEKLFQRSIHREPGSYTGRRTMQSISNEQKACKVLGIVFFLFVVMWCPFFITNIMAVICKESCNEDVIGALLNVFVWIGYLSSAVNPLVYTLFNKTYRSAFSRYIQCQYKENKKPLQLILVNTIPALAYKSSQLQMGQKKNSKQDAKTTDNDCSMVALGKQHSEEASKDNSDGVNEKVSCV

[8] = target: T1, 5-hydroxytryptamine receptor 2A; assay: Agonist activity at 5-HT2AR (unknown origin) transfected in human HEK293 cells by IP3 accumulation assay; format: cell-based
[9] = target: T4, 5-hydroxytryptamine receptor 2B; assay: Displacement of [3H]-[…] from recombinant human 5HT2BR transfected in human HEK293 cells incubated for 45 mins by radioligand binding assay; format: cell-based
[10] = Half life in po dosed Sprague-Dawley rat; format: ADME, organism-based; conditions: in vivo
Rattus norvegicus = assay: (§1) In vivo agonist activity at 5HT2CR in po dosed Sprague-Dawley rat assessed as reduction in food intake measured at 1 hr; format: functional
[11] = as §1; format: functional
[12] = Ratio of unbound drug level in po dosed Sprague-Dawley rat brain to plasma measured after 2 hrs; format: ADME, organism-based; conditions: read-out: K(p,uu,brain)
[13] = Oral bioavailability in Sprague-Dawley rat; format: ADME, organism-based; conditions: in vivo

T1 sequence (P28223 whole entry): as above

Compound	Ki [1] [nM]	Emax [2] [%]	Ki [3] [nM]	remaining at 0.75 h, 1 µM [4] [%]	remaining at 0.75 h, 1 µM [5] [%]	EC50 [6] [nM]	Emax at 10 µM (5-HT2B receptor) [%]	EC50 [7] [nM]	Emax at 10 µM (5-HT2A receptor) [%]	EC50 [8] [nM]	Ki [9] [nM]	half-life [10] [h]	Activity (Rattus norvegicus)	ED50 [11] [mg/kg]	Kp uu at 2 h [12]	bioavailability [13] [%]
CCCc1ccnc2c1CC[C@@H]1CNCCN21	6.31	99	0.158	29	27	0.0631	54									
CCCc1cncc2c1CC[C@@H]1CNCCN21	39.8	106		5	14											
COCc1ccnc2c1CC[C@@H]1CNCCN21		109					38									
Cc1ccnc2c1CC[C@@H]1CNCCN21		102					52									
FC(F)(F)CCc1cccc2c1CC[C@@H]1CNCCN21	20	95	2	81	23	3.16	48	3160	114	1000	100					
CC(C)Cc1ccnc2c1CC[C@@H]1CNCCN21		102	0.631	14	24	0.398	22	316			31.6					
c1cc2c(c(CC3CCC3)n1)CC[C@@H]1CNCCN21						> 1000		> 10000		> 10000						
c1cnc2c(c1)CC[C@@H]1CNCCN21		92				100	19	63.1		> 10000						
c1cc(C2CC2)c2c(n1)N1CCNC[C@H]1CC2		99				6.31	34	15.8	117	398						
c1cc2c(cn1)N1CCNC[C@H]1CC2		98				316	28	794		> 10000						
CCCc1cccc2c1CC[C@@H]1CNCCN21	5.01	107	0.316	13	38	0.2	82	100	74	158	12.6					
c1cc(CC2CCC2)c2c(n1)N1CCNC[C@H]1CC2		108		78	67		17									
c1ccc(Cc2cncc3c2CC[C@@H]2CNCCN32)cc1		110	0.501			0.631		> 10000			251					
Clc1ccnc2c1CC[C@@H]1CNCCN21		99				5.01	62	50.1	90	1260						
c1ccc(Cc2ccnc3c2CC[C@@H]2CNCCN32)cc1	1.26	107	0.251			0.126	25		114	50.1						
c1cc2c(cn1)CC[C@@H]1CNCCN21						> 10000		> 10000		> 10000						
FC(F)(F)CCc1ccnc2c1CC[C@@H]1CNCCN21		97		100	80		31		134			2.9	Dose-dependent effect	0.7	1.3	54
